Experimental data: patent US20130323767A1, “Method to Identify Liver Toxicity Using Metabolite Profiles” (STRAND LIFE SCIENCES PRIVATE LIMITED, priority 2011, published 2013)

Assays:
Assay type in all cases: biochemical
Conditions in all cases: experimental data or published literature, primary rat hepatocyte cultures
[1] = tested on: Gamma glutamyl cysteine synthetase; experiment: Observed % change in gamma glutamyl cysteine synthetase
Experimental: (§1) Liver specific cells or cell-lines are treated with known doses of drugs or toxicants. Upon treatment, the cells are harvested and cellular extracts prepared. In these extracts, the drug-induced alterations in metabolite profiles can be obtained by any technique such as biochemical assays, mass spectrometry, NMR or any other technique for obtaining metabolite profile known in the art. These are then compared with values obtained in the absence of the drug. Metabolites with significant alterations from their untreated values are identified. This generates what is referred to as altered metabolites 1.
(§2) All metabolite profiles upon drug treatment are obtained experimentally from primary rat hepatocyte cultures. The drug-induced metabolite profiles are then compared with those from untreated cells to obtain altered metabolites 1. The CMA-ES procedure described above is applied wherein, an initial population of 40 randomly generated parameter sets with fitness criteria of 10^−8 is used and the set of likely altered parameters are estimated for the following drugs. Further, a set of biochemical assays are carried out wherever possible to experimentally measure the level of parameter alteration.
(§3) For the validation of this disclosure, biochemical enzymatic assays are used. However, methods such as NMR, or mass spectrometry can also be used for metabolite data collection. […]

Influx of fatty acids = experiment: Observed % change in influx of fatty acids, drug-treated hepatocytes
Experimental: as §1, §2, §3

[2] = tested on: Carnitine palmitoyl transferase; experiment: Observed % change in carnitine palmitoyl transferase
Experimental: as §1, §2, §3

k proton leak = experiment: Observed % change in k proton leak
Experimental: as §1, §2, §3

[3] = tested on: Glutathione reductase (cytosolic); experiment: Observed % change in glutathione reductase (cytosolic)
Experimental: as §1, §2, §3

fof1ATPase = experiment: Observed % change in concentration of fof1ATPase
Experimental: as §1, §2, §3

[4] = tested on: Glutathione reductase (mitochondrial); experiment: Observed % change in glutathione reductase (mitochondrial)
Experimental: as §1, §2, §3

[5] = tested on: Glutathione peroxidase (mitochondrial); experiment: Observed % change in glutathione peroxidase (mitochondrial)
Experimental: as §1, §2, §3

k Ca2+/Na+ = experiment: Observed % change in k Ca2+/Na+
[6] = tested on: Glutathione peroxidase (cytosolic); experiment: Observed % change in glutathione peroxidase (cytosolic)
Experimental: as §1, §2, §3

| Gamma glutamyl cysteine synthetase, observed % change [1] [%] | Carnitine palmitoyl transferase, observed % change [2] [%] | Glutathione reductase (cytosolic), observed % change [3] [%] | Concentration_of_fof1ATPase, observed % change (fof1ATPase) [%] | Glutathione reductase (mitochondrial), observed % change [4] [%] | Glutathione peroxidase (mitochondrial), observed % change [5] [%] | Glutathione peroxidase (cytosolic), observed % change [6] [%] | SMILES | Influx of fatty acids, observed % change (Influx of fatty acids) [%] | k proton leak, observed % change (k proton leak) [%] | k Ca2+/Na+, observed % change (k Ca2+/Na+) [%] |
| --- | --- | --- | --- | --- | --- | --- | --- | --- | --- | --- |
| 0.00 | 0.00 | 360.00 | −22.00 | 20.00 | 21.00 | 7.00 | O=C(O)Cc1ccccc1Nc1c(Cl)cccc1Cl [Diclofenac] | −9.00 | 400.00 | 900.00 |
| −53.00 | −70.00 | 40.00 | −1.00 | −60.00 | −44.00 | −22.00 | CCCC(CCC)C(=O)O [Valproic acid] | −36.00 | 400.00 | 900.00 |
